Among the data in PubChem BioAssay AID192 (DTP/NCI, 2004) are T/C values, retold here.

Each structure is given as a SMILES string. “And” between values parts separate entries of the source, which are not always exact repeats. Identical values can stand only once. Toxic doses and inconclusive results are not listed.

The assay relates to BDF1 mice, B16 melanoma ip, median survival T/C. Briefly: NCI In Vivo Anticancer Drug Screen. Data for tumor model B16 Melanoma (intraperitoneal) in B6D2F1 (BDF1) mice. Particulars: endpoint: median survival time, higher = longer survival. Put shortly: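 Antitumor activity is assessed in mice bearing a transplanted tumor, with survival or tumor size compared against vehicle-dosed controls and expressed as T/C.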

Where [1] appears, read: dose: 25.0 mg/kg/injection, schedule: Q01DX009 (ip), vehicle: saline with Tween-80.
Setting [2] is: dose: 100.0 mg/kg/injection, schedule: Q01DX009 (ip), vehicle: Klucel (hydroxypropylcellulose) (HPC).
Setting [3] is: dose: 100.0 mg/kg/injection, schedule: Q01DX009 (ip), vehicle: saline with Tween-80.
Where [4] appears, read: dose: 100.0 mg/kg/injection, schedule: Q01DX009 (ip), vehicle: saline.
The mark [5] stands for this setting: dose: 200.0 mg/kg/injection, schedule: Q01DX009 (ip), vehicle: Klucel (hydroxypropylcellulose) (HPC).
The mark [6] stands for this setting: dose: 2.5 mg/kg/injection, schedule: Q01DX009 (ip), vehicle: saline.
The mark [7] stands for this setting: dose: 400.0 mg/kg/injection, schedule: Q01DX009 (ip), vehicle: Klucel (hydroxypropylcellulose) (HPC).
Where [8] appears, read: dose: 50.0 mg/kg/injection, schedule: Q01DX009 (ip), vehicle: saline with Tween-80.
[9] abbreviates: dose: 200.0 mg/kg/injection, schedule: Q01DX009 (ip), vehicle: saline with Tween-80.
The mark [10] stands for this setting: dose: 12.5 mg/kg/injection, schedule: Q01DX009 (ip), vehicle: saline with Tween-80.
The mark [11] stands for this setting: dose: 100.0 mg/kg/injection, schedule: Q04DX003 (ip), vehicle: saline with Tween-80.

In the case of `CC(C)n1c(=S)[nH]c2ccccc2c1=O`, the T/C is 102 % of control (dose: 16.5 mg/kg/injection, schedule: Q01DX009 (ip), vehicle: saline with Tween-80); 94 % of control under setting [1]; 100 % of control (dose: 37.5 mg/kg/injection, schedule: Q01DX009 (ip), vehicle: saline with Tween-80); 95 % of control under setting [2]; 87 % of control under setting [3]; 117 % of control under setting [4]. Also, under setting [5], the T/C was 90 % of control.
For `O=[N+]([O-])c1cc([As](=O)(O)O)ccc1Cl`, the T/C by setting is: (dose: 25.0 mg/kg/injection, schedule: Q01DX009 (ip), vehicle: Klucel (hydroxypropylcellulose) (HPC)) 100 % of control; (dose: 50.0 mg/kg/injection, schedule: Q01DX009 (ip), vehicle: Klucel (hydroxypropylcellulose) (HPC)) 96 % of control; under setting [2], 96 % of control.
As to `O[C@H](CN1CC1)[C@@H](O)CN1CC1`, the T/C is 117 % of control (dose: 0.13 mg/kg/injection, schedule: Q01DX009 (ip), vehicle: saline); 151 % of control (dose: 0.25 mg/kg/injection, schedule: Q01DX009 (ip), vehicle: saline); 166 % of control (dose: 0.5 mg/kg/injection, schedule: Q01DX009 (ip), vehicle: saline).
With `CC(C)(C#N)N1CCCCC1`, the T/C by setting is: (dose: 0.03 mg/kg/injection, schedule: Q01DX009 (ip), vehicle: saline) 97 % of control; (dose: 0.07 mg/kg/injection, schedule: Q01DX009 (ip), vehicle: saline) 104 % of control; (dose: 0.15 mg/kg/injection, schedule: Q01DX009 (ip), vehicle: saline) 98 % of control; under setting [6], 102 % of control.
In the case of `COc1cc(OC)c(NC(=O)c2ccccc2Cl)cc1Cl`, the T/C by setting is: under setting [2], 97 % of control; under setting [5], 102 % of control; under setting [7], 102 % of control.
On to `CC(C)(C)OC(=O)n1cnc(CC(NC(=O)OCc2ccccc2)C(=O)O)c1` (centres undefined), for which the T/C under setting [8] is 98 % of control, the T/C under setting [3] is 89 % of control and the T/C under setting [9] was 92 % of control.
The like results for `CCCNCCN(CC)CC` were, in that order, 107 % of control, 100 % of control and 99 % of control.
For `O=C(/C=C/C(=O)Oc1ccc(Cl)cc1)Oc1ccc(Cl)cc1`, the T/C is 94 % of control under setting [2] and 94 % of control under setting [5].
Regarding `CCCCCCCCCCCC(=O)CCC`, the T/C by setting is: under setting [2], 93 % of control; under setting [5], 91 % of control; under setting [7], 90 % of control.
In the case of `Nc1ncnc2c1c(C(=O)O)cn2C1OC(CO)C(O)C1O` (centres undefined), the T/C is 91 % of control under setting [10], 93 % of control under setting [1] and 96 % of control under setting [8].
For `CC12NC(=O)NC1(C)NC(=O)N2` (centres undefined), the T/C under setting [11] is 100 % of control.
On to `Cc1c(Cl)cccc1NC(=O)Oc1ccc(Cl)cc1`, for which the T/C by setting is: under setting [2], 98 % of control; under setting [5], 101 % of control; under setting [7], 96 % of control.
`O=C(O)C1(NO)CCCC1`: the T/C under setting [4] is 87 % of control.
For the compound `C/C=C(\C)c1cc(=O)c2c(C)cc3c(c2o1)C(=O)c1c(O)c(C2CC(C)(N(C)C)C(OC(C)=O)C(C)O2)cc(C2CC(N(C)C)C(O)C(C)O2)c1C3=O` (centres undefined), the T/C is 103 % of control (dose: 0.16 mg/kg/injection, schedule: Q01DX009 (ip), vehicle: saline); 103 % of control (dose: 0.31 mg/kg/injection, schedule: Q01DX009 (ip), vehicle: saline); 102 % of control (dose: 0.62 mg/kg/injection, schedule: Q01DX009 (ip), vehicle: saline); 91 % of control and 110 % of control (dose: 1.25 mg/kg/injection, schedule: Q01DX009 (ip), vehicle: saline); 124 % of control under setting [6].
As for `CC(/C=N/N=C(N)N)=N\NC(N)=S`, the T/C is 105 % of control (dose: 50.0 mg/kg/injection, schedule: Q01DX009 (ip), vehicle: distilled water + Tween-80) and 94 % of control (dose: 100.0 mg/kg/injection, schedule: Q01DX009 (ip), vehicle: distilled water + Tween-80).
For `CNC(=S)N/N=C/CCC/C=N/NC(=S)NC`, the T/C runs as follows: (dose: 15.9 mg/kg/injection, schedule: Q01DX009 (ip), vehicle: saline with Tween-80) 88 % of control; (dose: 31.8 mg/kg/injection, schedule: Q01DX009 (ip), vehicle: saline with Tween-80) 92 % of control.
`Cc1ccc(CS)cc1`: the T/C under setting [2] is 112 % of control and the T/C under setting [5] was 118 % of control.
`Nc1ncnc2c1ccn2C1OC2COP(=O)(O)OC2C1O` (centres undefined): the T/C is, setting by setting: (dose: 1.0 mg/kg/injection, schedule: Q01DX009 (ip), vehicle: saline) 116 % of control; (dose: 4.0 mg/kg/injection, schedule: Q01DX009 (ip), vehicle: saline) 111 % of control.
Turning to `CC(C(=O)O)C(NC(=O)OCc1ccccc1)C(=O)O` (centres undefined), the T/C (dose: 100.0 mg/kg/injection, schedule: Q04DX003 (ip), vehicle: other) was 97 % of control and the T/C (dose: 200.0 mg/kg/injection, schedule: Q04DX003 (ip), vehicle: other) was 89 % of control.
Turning to `COC(=O)C12OCC34C(CC5C(C)=C(O)C(=O)CC5(C)C3C(O)C1O)OC(=O)C(OC(=O)/C=C(\C)C(C)(C)O)C24` (centres undefined), the T/C by setting is: (dose: 0.05 mg/kg/injection, schedule: Q01DX009 (ip), vehicle: saline with Tween-80) 124 % of control; (dose: 0.1 mg/kg/injection, schedule: Q01DX009 (ip), vehicle: saline with Tween-80) 150 % of control; (dose: 0.2 mg/kg/injection, schedule: Q01DX009 (ip), vehicle: saline) 159 % of control; (dose: 0.4 mg/kg/injection, schedule: Q01DX009 (ip), vehicle: saline with Tween-80) 152 % of control; (dose: 0.4 mg/kg/injection, schedule: Q01DX009 (ip), vehicle: saline) 153 % of control; (dose: 0.8 mg/kg/injection, schedule: Q01DX009 (ip), vehicle: saline with Tween-80) 172 % of control. For the same compound, the T/C (dose: 1.6 mg/kg/injection, schedule: Q01DX009 (ip), vehicle: saline with Tween-80) is 161 % of control.
Regarding `CSc1ncnc2c1ncn2-n1cccc1`, the T/C runs as follows: under setting [2], 88 % of control; (dose: 100.0 mg/kg/injection, schedule: Q04DX003 (ip), vehicle: Klucel (hydroxypropylcellulose) (HPC)) 100 % of control; under setting [5], 88 % of control; (dose: 200.0 mg/kg/injection, schedule: Q04DX003 (ip), vehicle: Klucel (hydroxypropylcellulose) (HPC)) 100 % of control; under setting [7], 113 % of control; (dose: 400.0 mg/kg/injection, schedule: Q04DX003 (ip), vehicle: Klucel (hydroxypropylcellulose) (HPC)) 100 % of control.
Turning to `CC(C)C(=O)[O][Sn]([c]1ccccc1)([c]1ccccc1)[c]1ccccc1`, the T/C (dose: 3.0 mg/kg/injection, schedule: Q01DX009 (ip), vehicle: saline with Tween-80) was 108 % of control; the T/C (dose: 6.0 mg/kg/injection, schedule: Q01DX009 (ip), vehicle: saline with Tween-80) is 105 % of control; the T/C (dose: 12.0 mg/kg/injection, schedule: Q01DX009 (ip), vehicle: saline with Tween-80) was 124 % of control; the T/C under setting [10] was 100 % of control.
`NC(=S)N/N=C/c1ccc(OC(=O)COc2ccccc2)cn1`: the T/C runs as follows: under setting [10], 101 % of control and 110 % of control; under setting [1], 94 % of control and 104 % of control and 119 % of control; under setting [8], 103 % of control and 106 % of control and 117 % of control; under setting [3], 105 % of control; under setting [9], 105 % of control; (dose: 400.0 mg/kg/injection, schedule: Q01DX009 (ip), vehicle: saline with Tween-80) 108 % of control.
`Nc1nc(=S)c2[nH]c(N=Nc3ccc(S(=O)(=O)Nc4ncccn4)cc3)nc2[nH]1`: the T/C is 95 % of control (dose: 1.56 mg/kg/injection, schedule: Q01DX009 (ip), vehicle: Klucel (hydroxypropylcellulose) (HPC)); 102 % of control (dose: 3.12 mg/kg/injection, schedule: Q01DX009 (ip), vehicle: Klucel (hydroxypropylcellulose) (HPC)); 113 % of control (dose: 6.25 mg/kg/injection, schedule: Q01DX009 (ip), vehicle: Klucel (hydroxypropylcellulose) (HPC)); 102 % of control (dose: 12.5 mg/kg/injection, schedule: Q01DX009 (ip), vehicle: Klucel (hydroxypropylcellulose) (HPC)).
Take `CS(=N)(=O)c1ccccc1` (centres undefined): the T/C under setting [11] was 89 % of control; the T/C (dose: 200.0 mg/kg/injection, schedule: Q04DX003 (ip), vehicle: saline with Tween-80) is 100 % of control; the T/C (dose: 400.0 mg/kg/injection, schedule: Q04DX003 (ip), vehicle: saline with Tween-80) is 123 % of control.
